Patent US7169414B2, “Antimicrobial agents isolated from aloe vera” (priority 1998, dated 2007)

System: bacterial growth
Experiment: culture killing assays of known Aloe components
Format: cell-based
Conditions: purified extracts of known Aloe components
Method: Previously isolated and identified individual aloe products as antimicrobial products were studied to confirm that these compounds were not responsible for the anti-bacterial activity identified herein. Purified extracts of several known Aloe components were provided by Dr. I. Danhoff, including: Albarin, Awbarin, Anthraquinone, Aloin A, Aloin A & B, Aloe emodin, and Yellow sap components were tested in like assays.

SMILES	inhibition of bacterial growth
O=C1c2ccccc2C(=O)c2ccccc21 [Anthraquinone]	only Aloin A and Aloe emodin showed any inhibition of bacterial growth
O=C1c2c(O)cccc2C([C@@H]2O[C@H](CO)[C@@H](O)[C@H](O)[C@H]2O)c2cc(CO)cc(O)c21 (some centres unmarked) [Aloin A]	showed any inhibition of bacterial growth
